Patent US20200369667A1, “HETEROCYCLIC COMPOUNDS AS PRMT5 INHIBITORS” (ANGEX PHARMACEUTICAL, INC., priority 2017, published 2020)

Target: PRMT5:MEP50 (Homo sapiens, UniProt O14744)
Assay: PRMT5:MEP50 Flashplate Assay
Assay type: biochemical
Conditions: PRMT5:MEP50 inhibitory activity, 3H-SAM FlashPlate, class symbol
Procedure: Ten-point curves of inhibitor compounds were made using serial threefold dilutions in DMSO (the final top concentration of compound was 10 μM, 1% DMSO). Reaction mixture consisting of 50 mM Tris-HCl (pH 8.5), 0.002% Tween20, 0.005% BSA (Bovine Serum Albumin), 1 mM TCEP, and 1% DMSO. Substrates are freshly prepared in reaction buffer. PRMT5:MEP50 was then added into substrate solution and mixed gently. Inhibitor compound was then added and incubated for 30 min at room temperature. ^3H-SAM was added to initiate the reaction. Reactions were incubated for 2 h at room temperature and quenched with 0.5 mM SAM (S-adenosyl-L-Methionine) in assay buffer. An aliquot of the reaction mix was transferred to a streptavidin-coated 384-well FlashPlate (PerkinElmer). After an incubation time of 1 h, the plate was washed and then read on a TopCount (PerkinElmer) to measure the amount of tritium incorporated into the peptide substrate. IC50 was calculated using conventional curve-fitting method.

Sequence of PRMT5:MEP50 (O14744 whole entry, species assumed): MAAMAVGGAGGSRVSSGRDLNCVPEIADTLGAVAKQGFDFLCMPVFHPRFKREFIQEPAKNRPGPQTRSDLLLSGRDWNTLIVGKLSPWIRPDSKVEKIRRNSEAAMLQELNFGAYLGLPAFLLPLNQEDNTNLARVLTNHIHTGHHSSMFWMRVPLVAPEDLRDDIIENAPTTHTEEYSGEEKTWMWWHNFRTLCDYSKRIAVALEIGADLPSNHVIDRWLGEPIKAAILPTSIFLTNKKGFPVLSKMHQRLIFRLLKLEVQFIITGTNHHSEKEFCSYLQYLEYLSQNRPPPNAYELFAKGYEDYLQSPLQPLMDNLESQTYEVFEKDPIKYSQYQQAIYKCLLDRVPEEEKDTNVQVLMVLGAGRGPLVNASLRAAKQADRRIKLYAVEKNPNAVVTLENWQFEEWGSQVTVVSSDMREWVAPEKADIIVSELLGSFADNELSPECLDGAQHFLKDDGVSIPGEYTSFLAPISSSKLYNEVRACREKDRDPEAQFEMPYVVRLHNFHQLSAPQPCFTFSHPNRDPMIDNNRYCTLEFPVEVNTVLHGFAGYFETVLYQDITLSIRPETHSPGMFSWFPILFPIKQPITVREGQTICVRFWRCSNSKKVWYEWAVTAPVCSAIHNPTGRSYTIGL
Sequence of PRMT5:MEP50 (Q9BQA1 whole entry partner, species assumed): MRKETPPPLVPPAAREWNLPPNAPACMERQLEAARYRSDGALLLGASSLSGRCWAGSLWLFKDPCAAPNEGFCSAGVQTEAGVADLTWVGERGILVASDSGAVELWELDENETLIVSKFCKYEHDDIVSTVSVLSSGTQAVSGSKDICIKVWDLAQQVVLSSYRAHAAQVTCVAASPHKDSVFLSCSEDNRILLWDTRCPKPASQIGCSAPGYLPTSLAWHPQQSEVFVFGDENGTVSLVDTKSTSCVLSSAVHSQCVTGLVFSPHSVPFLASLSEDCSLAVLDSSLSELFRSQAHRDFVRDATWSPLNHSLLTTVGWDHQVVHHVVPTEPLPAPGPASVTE

Row | SMILES | IC50 [nM]
1 | Cn1c(N)nc2cc(CC[C@H]3C[C@@H](n4ccc5c(N)ncnc54)[C@H](O)[C@@H]3O)ccc2c1=O [Compound 1-7, 2-amino-7-(2-((1S,2R,3S,4R)-4-(4-amino-7H-pyrrolo[2,3-d]pyrimidin-7-yl)-2,3-dihydroxycyclopentyl)ethyl)-3-methylquinazolin-4(3H)-one] | < 1
2 | C[C@H]1COc2cc3ccc(CC[C@H]4C[C@@H](n5ccc6c(N)ncnc65)[C@H](O)[C@@H]4O)cc3nc2N1 [Compound 1-8, (1R,2S,3R,5S)-3-(4-amino-7H-pyrrolo[2,3-d]pyrimidine-7-yl)-5-(2-((S)-3-methyl-3,4-dihydro-2H-[1,4]oxazino[3,2-b]quinoline-7-yl)ethyl)cyclopentane-1,2-diol] | < 1
3 | C[C@@H]1COc2cc3ccc(CC[C@H]4C[C@@H](n5ccc6c(N)ncnc65)[C@H](O)[C@@H]4O)cc3nc2N1 [Compound 1-9] | < 1
4 | C[C@@H]1CNc2nc3cc(CC[C@H]4C[C@@H](n5ccc6c(N)ncnc65)[C@H](O)[C@@H]4O)ccc3cc2O1 [Compound 1-10] | < 1
5 | C[C@H]1CNc2nc3cc(CC[C@H]4C[C@@H](n5ccc6c(N)ncnc65)[C@H](O)[C@@H]4O)ccc3cc2O1 [Compound 1-11] | < 1
6 | Nc1ncnc2c1ccn2[C@@H]1C[C@H](CCc2ccc3cc4c(nc3c2)NC(=O)CO4)[C@@H](O)[C@H]1O [Compound 1-12] | < 1
7 | Nc1ncnc2c1ccn2[C@@H]1C[C@H](CCc2ccc3cc4c(nc3c2)NCCS4)[C@@H](O)[C@H]1O [Compound 1-13] | < 1
8 | CN1C(N)=Nc2cc(CC[C@H]3C[C@@H](n4ccc5c(N)ncnc54)[C@H](O)[C@@H]3O)ccc2S1(=O)=O [Compound 1-14] | < 1
9 | CC1(C)C(N)=Nc2cc(CC[C@H]3C[C@@H](n4ccc5c(N)ncnc54)[C@H](O)[C@@H]3O)ccc2S1(=O)=O [Compound 1-15] | 1 to 100
10 | CC1(C)Oc2ccc(CC[C@H]3C[C@@H](n4ccc5c(N)ncnc54)[C@H](O)[C@@H]3O)cc2N=C1N [Compound 1-16] | < 1
11 | Nc1ncnc2c1ccn2[C@@H]1C[C@H](CCc2ccc3c(=O)n(C4CC4)c(N)nc3c2)[C@@H](O)[C@H]1O [Compound 1-17] | < 1
12 | CC1(C)Cn2c(nc3cc(CC[C@H]4C[C@@H](n5ccc6c(N)ncnc65)[C@H](O)[C@@H]4O)ccc3c2=O)N1 [Compound 1-18] | 1 to 100

Next, values leading:

Row | IC50 [nM] | SMILES
13 | 1 to 100 | CN1C(N)=Nc2cc(CC[C@H]3O[C@@H](n4ccc5c(N)ncnc54)[C@H](O)[C@@H]3O)ccc2S1(=O)=O [Compound 2-8]
14 | 1 to 100 | C[C@@H]1CNc2nc3cc(CC[C@H]4O[C@@H](n5ccc6c(N)ncnc65)[C@H](O)[C@@H]4O)ccc3cc2O1 [Compound 2-9]
15 | 1 to 100 | C[C@H]1CNc2nc3cc(CC[C@H]4O[C@@H](n5ccc6c(N)ncnc65)[C@H](O)[C@@H]4O)ccc3cc2O1 [Compound 2-10]
16 | 1 to 100 | CC1(C)C(N)=Nc2cc(CC[C@H]3O[C@@H](n4ccc5c(N)ncnc54)[C@H](O)[C@@H]3O)ccc2S1(=O)=O [Compound 2-11]
17 | < 1 | CC1(C)Oc2ccc(CC[C@H]3O[C@@H](n4ccc5c(N)ncnc54)[C@H](O)[C@@H]3O)cc2N=C1N [Compound 2-12]
18 | 1 to 100 | Nc1nc2cc(CCC[C@H]3C[C@@H](n4ccc5c(N)ncnc54)[C@H](O)[C@@H]3O)ccc2cc1Br [Compound 3-7]
19 | < 1 | Nc1ncnc2c1ccn2[C@@H]1C[C@H](CCc2ccc3cc4c(nc3c2)NC(=O)CS4)[C@@H](O)[C@H]1O [Compound 4-3]
